Assay results from BindingDB's records for doi:10.7270/Q2DZ06QW (Columbia University Molecular Screening Center, 2008).

Target: T1, Bifunctional epoxide hydrolase 2 (Homo sapiens, UniProt P34913)
T1 sequence (P34913 whole entry): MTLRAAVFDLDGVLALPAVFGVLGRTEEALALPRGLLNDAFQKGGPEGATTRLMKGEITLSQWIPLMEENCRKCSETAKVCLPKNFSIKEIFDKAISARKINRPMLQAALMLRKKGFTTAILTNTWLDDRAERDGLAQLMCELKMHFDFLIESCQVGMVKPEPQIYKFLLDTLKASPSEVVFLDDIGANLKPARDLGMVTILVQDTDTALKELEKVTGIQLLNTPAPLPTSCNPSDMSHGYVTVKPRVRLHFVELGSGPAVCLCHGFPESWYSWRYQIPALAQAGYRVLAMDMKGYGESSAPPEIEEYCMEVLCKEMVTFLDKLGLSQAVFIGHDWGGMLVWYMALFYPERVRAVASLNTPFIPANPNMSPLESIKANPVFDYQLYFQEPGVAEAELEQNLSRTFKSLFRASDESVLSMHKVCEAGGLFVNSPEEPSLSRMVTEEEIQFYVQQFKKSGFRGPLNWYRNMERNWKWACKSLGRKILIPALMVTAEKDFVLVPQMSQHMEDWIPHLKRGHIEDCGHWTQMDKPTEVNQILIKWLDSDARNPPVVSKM
Assay: sEH inhibitor concentration-response potency, dose response, biochemical, human sEH, fluorescence, Infinite200 (AID 1026)

O=C(CCCOc1ccc(Cl)cc1Cl)NN=CC1CCCCC1
IC50: 24.4 nM

Cc1ccccc1NC(=S)NCCC(c1ccccc1)c1ccccc1 [1-(3,3-diphenylpropyl)-3-(2-methylphenyl)thiourea]
IC50: > 10000 nM

Cc1ccc(NC(=O)NC2CCCCC2)cc1Cl [1-(3-chloranyl-4-methyl-phenyl)-3-cyclohexyl-urea]
IC50: 70.5 nM

COc1ccc(S(=O)(=O)N2C3CCC2CC(NC(=O)NC2CCCCC2)C3)cc1 (stereo not drawn) [1-Cyclohexyl-3-[8-(4-methoxy-benzenesulfonyl)-8-aza-bicyclo[3.2.1]oct-3-yl]-urea]
IC50: 39.4 nM

CC(C)(C)c1ccc(S(=O)(=O)N2CCC(c3nc4cc(Cl)ccc4[nH]3)CC2)cc1 [2-[1-(4-tert-butylphenyl)sulfonylpiperidin-4-yl]-6-chloranyl-1H-benzimidazole]
IC50: > 10000 nM

CCOC(=O)C(O)(c1ccc(NC(=O)NC2CCCCC2)cc1)C(F)(F)F (stereo not drawn) [2-[4-(cyclohexylcarbamoylamino)phenyl]-3,3,3-trifluoro-2-hydroxy-propionic acid ethyl ester]
IC50: 121 nM

COc1ccc(Cn2ccc(=O)c(Cc3c(Cl)cccc3Cl)c2C)cc1 [3-(2,6-dichlorobenzyl)-1-(4-methoxybenzyl)-2-methyl-4(1H)-pyridinone]
IC50: > 10000 nM

Cc1cc(Cl)c(OCCCNCc2ccccc2)c(Br)c1 [3-(2-bromanyl-6-chloranyl-4-methyl-phenoxy)-N-(phenylmethyl)propan-1-amine;ethanedioic acid]
IC50: > 10000 nM

CCN(CC)S(=O)(=O)c1ccc(N=C2NS(=O)(=O)c3ccccc32)cc1 [4-(1,1-Dioxo-1H-1lambda*6*-benzo[d]isothiazol-3-ylamino)-N,N-diethyl-benzenesulfonamide]
IC50: > 10000 nM

COC(=O)c1ccc(S(=O)(=O)N2C3CCC2CC(NC(=O)NC2CCCCC2)C3)cc1 (stereo not drawn) [4-[3-(3-Cyclohexyl-ureido)-8-aza-bicyclo[3.2.1]octane-8-sulfonyl]-benzoic acid methyl ester]
IC50: 8.9 nM

c1ccc(CCN=C2NCCCS2)cc1 [5,6-dihydro-4H-1,3-thiazin-2-yl(phenethyl)amine]
IC50: > 10000 nM

CCOC(=O)c1sc(NC(=O)Nc2ccc(Cl)cc2)cc1C [5-[(4-chlorophenyl)carbamoylamino]-3-methyl-thiophene-2-carboxylic acid ethyl ester]
IC50: 63.1 nM

CCOC(=O)c1sc(NC(=O)c2ccc(Cl)s2)cc1C [5-[(5-chlorothiophene-2-carbonyl)amino]-3-methyl-thiophene-2-carboxylic acid ethyl ester]
IC50: 82.8 nM

O=C1Nc2ccc(S(=O)(=O)N3CCOCC3)c3cccc1c23 [6-(4-morpholinylsulfonyl)-1H-benzo[cd]indol-2-one]
IC50: > 10000 nM

CC(C)CN(C#N)c1nc(N2CCOCC2)nc(N2CCOCC2)n1 [(4,6-dimorpholin-4-yl-1,3,5-triazin-2-yl)-(2-methylpropyl)cyanamide]
IC50: > 10000 nM

Cc1cc(NS(=O)(=O)c2ccc(Nc3nc(-c4sc(NC(=O)c5ccccc5)nc4C)cs3)cc2)no1 [MLS000523248]
IC50: 19.8 nM

Clc1ccc(CON=CNc2ncnc3sccc23)cc1 [N-[(4-chlorophenyl)methoxy]-N'-thieno[2,3-d]pyrimidin-4-yl-methanimidamide]
IC50: > 10000 nM

CCOC(=O)CSc1ccc(-c2nc3cc(C)c(C)cc3[nH]2)cn1 [SMR000122535]
IC50: > 10000 nM
